From patent US10526320B2, “Pyrrolidine derivatives as PPAR agonists” (GUANGDONG RAYNOVENT BIOTECH CO., LTD., priority 2016, dated 2020)
pEC50: −log10 of the molar value. Where two headings read alike, the source gives them in different places.

Assays:
Type in all cases: cell-based
[1] = target: T1, PPAR Delta (Homo sapiens, UniProt Q03181); experiment: PathHunter NHR protein interaction / nuclear translocation agonist test, PPAR Delta; settings: for EC50: PPAR Delta EC50 nM; for Emax: read-out: PPAR Delta Maximum Activation Response %; for pEC50: agonist mode, read-out: PPAR Delta EC50
T1 sequence (Q03181 1-441): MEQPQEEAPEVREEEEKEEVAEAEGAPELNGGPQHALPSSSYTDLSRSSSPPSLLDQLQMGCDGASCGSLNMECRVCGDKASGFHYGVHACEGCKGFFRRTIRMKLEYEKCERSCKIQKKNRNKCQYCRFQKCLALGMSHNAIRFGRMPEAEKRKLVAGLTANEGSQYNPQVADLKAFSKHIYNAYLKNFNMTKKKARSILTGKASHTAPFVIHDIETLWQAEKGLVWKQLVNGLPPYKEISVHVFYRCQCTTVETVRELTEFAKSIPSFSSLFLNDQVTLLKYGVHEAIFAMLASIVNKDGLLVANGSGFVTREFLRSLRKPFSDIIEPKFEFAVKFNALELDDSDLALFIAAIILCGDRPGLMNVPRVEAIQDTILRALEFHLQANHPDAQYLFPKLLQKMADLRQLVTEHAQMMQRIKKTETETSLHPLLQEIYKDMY

[2] = target: T2, PPAR Alpha (Homo sapiens, UniProt Q07869); experiment: PathHunter NHR protein interaction / nuclear translocation agonist test, PPAR Alpha; settings: for EC50: PPAR Alpha EC50 nM; for Emax: read-out: PPAR Alpha Maximum Activation Response %; for pEC50: agonist mode, read-out: PPAR Alpha EC50
T2 sequence (Q07869 1-468): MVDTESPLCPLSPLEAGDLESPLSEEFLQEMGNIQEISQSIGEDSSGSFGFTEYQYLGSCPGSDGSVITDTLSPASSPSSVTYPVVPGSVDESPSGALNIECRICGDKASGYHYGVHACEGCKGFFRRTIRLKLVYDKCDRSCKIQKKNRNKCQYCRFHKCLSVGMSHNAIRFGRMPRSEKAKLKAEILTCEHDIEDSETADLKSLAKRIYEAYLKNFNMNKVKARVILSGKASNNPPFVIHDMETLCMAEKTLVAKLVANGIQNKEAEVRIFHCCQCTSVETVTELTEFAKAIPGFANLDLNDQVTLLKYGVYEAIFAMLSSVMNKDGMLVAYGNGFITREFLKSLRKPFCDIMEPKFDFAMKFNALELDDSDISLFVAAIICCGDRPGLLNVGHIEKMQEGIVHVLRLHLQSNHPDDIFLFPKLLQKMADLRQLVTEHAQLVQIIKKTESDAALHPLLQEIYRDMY

[3] = target: T3, PPAR Gamma (Homo sapiens, UniProt P37231); experiment: PathHunter NHR protein interaction / nuclear translocation agonist test, PPAR Gamma; settings: for EC50: PPAR Gamma EC50 nM; for Emax: read-out: PPAR Gamma Maximum Activation Response %; for pEC50: agonist mode, read-out: PPAR Gamma EC50
T3 sequence (P37231 1-505): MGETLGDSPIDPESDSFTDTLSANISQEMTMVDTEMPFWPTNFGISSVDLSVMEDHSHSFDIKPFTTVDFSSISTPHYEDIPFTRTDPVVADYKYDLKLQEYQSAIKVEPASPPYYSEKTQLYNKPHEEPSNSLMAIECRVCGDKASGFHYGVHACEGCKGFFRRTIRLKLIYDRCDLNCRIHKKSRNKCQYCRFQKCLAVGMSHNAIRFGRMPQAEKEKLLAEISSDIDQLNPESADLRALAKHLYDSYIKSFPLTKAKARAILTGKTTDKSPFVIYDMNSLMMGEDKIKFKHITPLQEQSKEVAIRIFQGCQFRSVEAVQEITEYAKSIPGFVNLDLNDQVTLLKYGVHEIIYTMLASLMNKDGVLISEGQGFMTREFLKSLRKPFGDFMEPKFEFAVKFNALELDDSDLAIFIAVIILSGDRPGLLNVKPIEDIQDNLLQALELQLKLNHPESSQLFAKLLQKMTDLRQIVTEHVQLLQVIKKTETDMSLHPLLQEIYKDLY

[4] = relative to known PPARδ agonist L-165,041 = 100%
[5] = relative to known PPARγ agonist Troglitazone = 100%

| SMILES | EC50 [1] [nM] | Emax [1] [%] | EC50 [2] [nM] | Emax [2] [%] | EC50 [3] [nM] | Emax [3] [%] | pEC50 [1] | Emax [1, 4] [%] | pEC50 [2] | pEC50 [3] | Emax [3, 5] [%] | PPAR Alpha Maximum Activation Response % [2] | PPAR Delta Maximum Activation Response % [1] |
| --- | --- | --- | --- | --- | --- | --- | --- | --- | --- | --- | --- | --- | --- |
| CSc1ccc(C(=O)[C@H]2CN(C(=O)Oc3ccc(C)nc3)C[C@@H]2Cc2cc(C)c(OC(C)(C)C(=O)O)c(C)c2)cc1 (racemic) [Compound 53] | 100 to 150 | 50 to 80 | 100 to 150 | 80 to 100 | > 250 | 80 to 100 | – | – | – | – | – | – | – |
| CSc1ccc(C(=O)[C@H]2CN(C(=O)OC3CCC(C)CC3)C[C@@H]2Cc2cc(C)c(OC(C)(C)C(=O)O)c(C)c2)cc1 (mixture of isomers) [Compound 54] | – | – | – | 80 to 100 | – | – | 6.82 to 7.00 | 80 to 100 | > 7.00 | 6.60 to 6.70 | 80 to 100 | – | – |
| CSc1ccc(C(=O)[C@H]2CN(C)C[C@@H]2CCc2cc(C)c(OC(C)(C)C(=O)O)c(C)c2)cc1 (racemic) [Compound 55] | 200 to 250 | 50 to 80 | > 250 | < 50 | > 250 | < 50 | – | – | – | – | – | – | – |
| CSc1ccc(C(=O)[C@H]2CNC[C@@H]2CCc2cc(C)c(OC(C)(C)C(=O)O)c(C)c2)cc1 (racemic) [Compound 56] | – | 50 to 80 | – | < 50 | – | < 50 | 6.60 to 6.70 | – | < 6.60 | < 6.60 | – | – | – |
| Cc1cc(CC[C@H]2CN(C(=O)Oc3ccccc3)C[C@@H]2C(=O)c2ccc([S+](C)[O-])cc2)cc(C)c1OC(C)(C)C(=O)O (mixture of isomers) [Compound 67] | – | 80 to 100 | – | 80 to 100 | – | – | < 6.60 | – | – | < 6.60 | 80 to 100 | – | – |
| Cc1cc(CC[C@H]2CN(C(=O)Oc3ccccc3)C[C@@H]2C(=O)c2ccc(S(C)(=O)=O)cc2)cc(C)c1OC(C)(C)C(=O)O (racemic) [Compound 68] | – | 80 to 100 | – | 80 to 100 | – | – | < 6.60 | – | – | < 6.60 | 80 to 100 | – | – |
| COC(=O)N1C[C@@H](C(=O)c2ccc(SC)cc2)[C@H](c2cc(C)c(OC(C)(C)C(=O)O)c(C)c2)C1 (single isomer, unassigned) [Compound 5] | – | 50 to 80 | – | – | – | < 50 | 6.82 to 7.00 | – | < 6.60 | < 6.60 | – | I (key: 100% ≥ I ≥ 80%; 80% ≥ II ≥ 50%; III < 50%) | – |
| CSc1ccc(C(=O)C2CN(C(=O)Oc3ccc(Cl)cc3)CC2c2cc(C)c(OC(C)(C)C(=O)O)c(C)c2)cc1 (single isomer, unassigned) [Compound 13] | – | 50 to 80 | – | 50 to 80 | – | 80 to 100 | > 7.00 | – | > 7.00 | < 6.60 | – | – | – |
| CSc1ccc(C(=O)C2CN(C(=O)Oc3ccc(Cl)cc3)CC2c2cc(C)c(OC(C)(C)C(=O)O)c(C)c2)cc1 (single isomer, unassigned) [Compound 14] | – | – | – | – | – | – | > 7.00 | – | > 7.00 | < 6.60 | – | – | – |
| CSc1ccc(C(=O)C2CN(C(=O)Oc3ccc(Cl)cc3)CC2c2cccc(OC(C)(C)C(=O)O)c2)cc1 (single isomer, unassigned) [Compound 34] | – | – | – | – | – | 80 to 100 | < 6.60 | – | > 7.00 | < 6.60 | – | I (key: 100% ≥ I ≥ 80%; 80% ≥ II ≥ 50%; III < 50%) | III (key: 100% ≥ I ≥ 80%; 80% ≥ II ≥ 50%; III < 50%) |
| Cc1cc(CCC2CN(C(=O)Oc3ccccc3)CC2C(=O)c2ccc(Cl)s2)cc(C)c1OC(C)(C)C(=O)O (single isomer, unassigned) [Compound 47] | – | – | – | 80 to 100 | – | – | > 7.00 | 80 to 100 | > 7.00 | 6.70 to 6.82 | 80 to 100 | – | – |
| COC(=O)N1CC(CCc2cc(C)c(OC(C)(C)C(=O)O)c(C)c2)C(C(=O)c2ccc(SC)cc2)C1 (single isomer, unassigned) [Compound 57] | – | 50 to 80 | – | 80 to 100 | – | 50 to 80 | > 7.00 | – | > 7.00 | 6.60 to 6.70 | – | – | – |
| CSc1ccc(C(=O)C2CN(C(=O)OC(C)C)CC2CCc2cc(C)c(OC(C)(C)C(=O)O)c(C)c2)cc1 (single isomer, unassigned) [Compound 58] | – | 50 to 80 | – | 80 to 100 | – | 50 to 80 | > 7.00 | – | 6.82 to 7.00 | 6.60 to 6.70 | – | – | – |
| Cc1cc(CCC2CN(C(=O)Oc3ccccc3)CC2C(=O)c2ccc(F)cc2)cc(C)c1OC(C)(C)C(=O)O (single isomer, unassigned) [Compound 63] | – | – | – | 80 to 100 | – | – | > 7.00 | 80 to 100 | > 7.00 | 6.60 to 6.70 | 80 to 100 | – | – |
| Cc1cc(CCC2CN(C(=O)Oc3ccccc3)CC2C(=O)c2ccc(Cl)cc2)cc(C)c1OC(C)(C)C(=O)O (single isomer, unassigned) [Compound 65] | – | 80 to 100 | – | – | – | – | > 7.00 | – | > 7.00 | 6.60 to 6.70 | – | – | – |
| Cc1cc(CCC2CN(C(=O)Oc3ccccc3)CC2C(=O)c2ccc(Cl)cc2)cc(C)c1OC(C)(C)C(=O)O (single isomer, unassigned) [Compound 66] | – | – | – | – | – | – | > 7.00 | – | > 7.00 | 6.70 to 6.82 | – | – | I (key: 100% ≥ I ≥ 80%; 80% ≥ II ≥ 50%; III < 50%) |
| Cc1cc(CC2CN(C(=O)Oc3ccccc3)CC2C(=O)c2ccc(F)cc2)cc(C)c1OC(C)(C)C(=O)O (single isomer, unassigned) [Compound 69] | – | – | – | 80 to 100 | – | – | > 7.00 | 80 to 100 | > 7.00 | 6.70 to 6.82 | 80 to 100 | – | – |
| Cc1cc(CC2CN(C(=O)Oc3ccccc3)CC2C(=O)c2ccc(Cl)cc2)cc(C)c1OC(C)(C)C(=O)O (single isomer, unassigned) [Compound 70] | – | – | – | 80 to 100 | – | – | > 7.00 | 80 to 100 | > 7.00 | 6.70 to 6.82 | 80 to 100 | – | – |
| CSc1ccc(C(=O)C2CN(C(=O)Oc3ccc(Br)cc3)CC2Cc2cc(C)c(OC(C)(C)C(=O)O)c(C)c2)cc1 (centres unmarked) [Compound 29] | – | 80 to 100 | – | 80 to 100 | – | – | > 7.00 | – | > 7.00 | – | – | – | – |
| COCCN1CC(CCc2cc(C)c(OC(C)(C)C(=O)O)c(C)c2)C(C(=O)c2ccc(SC)cc2)C1 (centres unmarked) [Compound 59] | – | – | – | 50 to 80 | – | – | 6.60 to 6.70 | 50 to 80 | 6.60 to 6.70 | – | – | – | – |
